The values that follow are results of earlier work, collected in US10639343B2, “Preparation method of Gynostemma pentaphyllum leaves extract and Gynostemma pentaphyllum extract prepared by the method thereof” (BTC CORPORATION, priority 2018, dated 2020).

For this data set the following is noted: intraperitoneal injection, without training.

Take `NC(=O)c1ncn([C@@H]2O[C@H](COP(=O)(O)O)[C@@H](O)[C@H]2O)c1N` [AICAR, 5-aminoimidazole-4-carboxamide ribonucleotide]: the “increase of the distance of exercise performance” value is reported as 44%.
